Test results taken from US9045403B2 (Coyote Pharmaceuticals, Inc., priority 2012, dated 2015).
Values joined by “and” are separate entries in the source; they are usually repeats but may differ in a detail not shown here. Equal entries are not always repeated.

What was measured:
[1] = test system: Mouse Neuro2A neuroblastoma cells; test: Neuro2A cells with neurites after GGTI-298 (Example 16); assay type: cell-based; conditions: 10 μM, 48 hrs
Experimental: Mouse Neuro2A neuroblastoma cells were cultured in DMEM supplemented with 10% FBS for 24 hrs. […] Then differentiation was induced by retinoic acid in DMEM supplemented with 2% FBS. The cell culture was incubated with a Geranylgeranyl Transferase inhibitor, GGTI-298. […]

[2] = test system: Neuro2A cells; test: Neuro2A cells that extended neurites, with GGTI-298 (Example 18); assay type: cell-based, mouse; conditions: 0.1-1 μM, vehicle 0.0-0.20
From the text: After differentiation was induced, cells that extended neurites were counted.

[3] = test system: Sprague-Dawley rats injected with Kainic acid; test: Kainic acid induced neurodegeneration and seizure in rats (Example 21); assay type: in vivo, rat; conditions: oral
From the text: Seizure behaviors were observed and scored (Ref. R. J. Racine, Modification of seizure activity by electrical stimulation: II. Motor seizure, Electroencephalogr. Clin. Neurophysiol. 32 (1972) 281-294. Modifications were made for the methods). Brain tissues of rats were sectioned on histology slides, and neurons in hippocampus tissues were stained by Nissl. Neurons damaged by Kainic acid and behavior scores were quantified.

[4] = Pharmacokinetics of CNS-102 in rats, IV and oral; assay type: in vivo; conditions: rat
Experimental: Rats were administered a single dose of CNS-102 either intravenously (12 mg/kg) or orally (24 mg/kg), and blood samples were taken to measure the average plasma concentrations of CNS-102 over time.
The formulation for this study includes the following: […]
AUC(0-last) (min*ng/ml): area under the concentration-time curve from zero up to the last measurable time-point.
lz (1/min): the first order rate constant associated with the terminal (log-linear) portion of the curve, estimated by linear regression of time vs. log concentration.
Terminal Half-Life (t½)=ln(2)/lz: calculated using Lambda_z method to find best fit. If necessary, the concentration-time points were manually selected for use in the calculation. Bolded-italicized concentrations indicate points used for calculation.
AUC(0-inf) (min*ng/ml): Area under the concentration-time curve from zero up to infinity, based on the last observed concentration. Requires lz.

[5] = test system: HSP70; test: HSP70 expression in cortex and hippocampus by western blot after oral dosing; assay type: in vivo, rat; set-up: HSP70 expression, treatment average: scale not given here
Experimental: The time course of protein expression, as measured by western blot for HSP70, was determined in triplicate for hippocampus, and cortex tissue samples taken from each of 5 animals per group at each of four time points (24, 48, 72, and 96 h) after treatment with either PBS or 12 mg/kg CNS-102, administered orally. The average expression for each treatment group is calculated at each time point for each tissue using PROC MIXED in SAS and are tabulated, along with the difference (delta) between treatment averages and a p-value comparing the difference to zero, below.

[6] = test system: Sprague Dawley rats, KA injected into the hippocampus; test: Time course of neuroprotection in the kainic acid model; assay type: in vivo, rat; conditions: for Difference of mean fraction damaged to pooled PBS / Mean fraction of hippocampus cells having KA-induced damage: 12 mg/kg oral; for Mean fraction of hippocampus cells having KA-induced damage: pooled PBS 0.187
Experimental: CNS-102 was administered orally to Sprague Dawley rats at 12 mg/kg. After dosing, KA was stereotactically injected into the hippocampus at 24, 48, 72, 96 and 168 hours to induce neuron damage. After 24 h, hippocampus tissue was collected, stained, and imaged. The scans were analyzed by Image J to calculate the fraction of cells having KA-induced damage. Average fraction damaged in the hippocampus from ten animals for each treatment (PBS vs. 12 mg/kg CNS-102) by time (24, 48, 72, 96 and 168 hours) combination was estimated with PROC MIXED in SAS. Comparisons of the CNS-102 treatment groups to the pooled PBS treatment at the different times can be made, giving the results tabulated below.

[7] = test system: Sprague Dawley rats, KA injected into the hippocampus; test: Neuroprotection by CNS-102 in the presence of GGA cis-isomer in the kainic acid model; assay type: in vivo; conditions: 24 mg/Kg rat oral; KA at 72 hours
Experimental: After dosing, KA was stereotactically injected into the hippocampus at 72 hours to induce neuron damage. After 24 h, hippocampus tissue was collected, stained, and imaged. The scans were analyzed by Image J to calculate the fraction of cells having KA-induced damage.

[8] = test system: HSP70; test: HSP70 induction in rat hippocampus with or without stereotactic kainic acid injection; assay type: in vivo
Experimental: Stereotactic injections of Kainic acid into rat hippocampus tissues led to increased damages in neurons. […] Under this condition, neurons and HSP70 expression was stained by immunohistochemistry techniques. HSP70 expression was induced in a very specific area only that KA was injected. The induced area was not stained by HSP70 antibody when KA was not injected, but CNS-102 was dosed.
HSP70 induction by dosing CNS-102 in the absence of the KA injection was limited in western blot experiments using hippocampus lysates. 120% or 130% of HSP70 expression could be seen by comparing those of vehicle dosing control experiments.

[9] = mouse, in vivo, po, 12 mg/kg
Experimental: A total of 84 male mice (64 transgenic Sod1 mutant mice; 20 wild type mice) were included in the study. Dosing was administered daily beginning at postnatal day 38 (P38) via a single bolus oral gavage injection.
Blood and serum samples from days P70 and P100 were collected on three animals from each of the six treatment groups. Hematology measures were white blood cell count, red blood cell count, hemoglobin, hematocrit, mean corpuscular volume, mean corpuscular hemoglobin, mean corpuscular hemoglobin concentration, and platelets. Chemistry values were alanine aminotransferase, aspartate aminotransferase, albumin, total protein, gamma globulin, blood urea nitrogen, cholesterol, and glucose.

[10] = Cortex, 24 hours after 12 mg/kg oral
[11] = Cortex, 48 hours after 12 mg/kg oral
[12] = Cortex, 72 hours after 12 mg/kg oral
[13] = Cortex, 96 hours after 12 mg/kg oral
[14] = Hippocampus, 24 hours after 12 mg/kg oral
[15] = Hippocampus, 48 hours after 12 mg/kg oral
[16] = Hippocampus, 72 hours after 12 mg/kg oral
[17] = Hippocampus, 96 hours after 12 mg/kg oral

Structure (SMILES): CC(=O)CC/C=C(\C)CC/C=C(\C)CC/C=C(\C)CCC=C(C)C [CNS-102]
- Mean of cell numbers (Arbitrary units) [1]: 0.738 Arbitrary units
- Mean of cell numbers (Arbitrary units) [2]: 0.45-0.65 Arbitrary units
- Mean of Hippocampus CA3 neurons damaged (Arbitrary units) ([3]; 3 mg/Kg rat): 10.25 Arbitrary units
- Mean of Hippocampus CA3 neurons damaged (Arbitrary units) ([3]; 12 mg/Kg rat): 10.16 Arbitrary units
- Mean of Hippocampus CA3 neurons damaged (Arbitrary units) ([3]; 25 mg/Kg rat): 1.97 Arbitrary units
- AUC(0-inf), Average ([4]; 12 mg/kg IV): 208728 ng·min/mL
- AUC(0-last), Average ([4]; 12 mg/kg IV): 115146 ng·min/mL
- C0, Average ([4]; 12 mg/kg IV): 9144.0 ng/mL
- Vss, Average ([4]; 12 mg/kg IV): 9.796 L/kg
- Vz, Average ([4]; 12 mg/kg IV): 12.039 L/kg
- t1/2, Average ([4]; 12 mg/kg IV): 2.45 h
- AUC(0-inf), Average ([4]; 24 mg/kg oral): 204878 ng·min/mL
- AUC(0-last), Average ([4]; 24 mg/kg oral): 189114 ng·min/mL
- Cmax, Average ([4]; 24 mg/kg oral): 752.9 ng/mL
- Tmax, Average ([4]; 24 mg/kg oral): 5.67 h
- t1/2, Average ([4]; 24 mg/kg oral): 1.72 h
- F(0-inf), Average ([4]; 24 mg/kg oral vs 12 mg/kg IV): 49.1%
- F(0-last), Average ([4]; 24 mg/kg oral vs 12 mg/kg IV): 82.1%
- HSP70 expression, delta CNS-PBS [5, 10]: 0.24
- HSP70 expression, treatment average [5, 10]: −0.016
- HSP70 expression, delta CNS-PBS [5, 11]: 0.11
- HSP70 expression, treatment average [5, 11]: −0.45
- HSP70 expression, delta CNS-PBS [5, 12]: 0.13
- HSP70 expression, treatment average [5, 12]: 0.14
- HSP70 expression, delta CNS-PBS [5, 13]: 0.19
- HSP70 expression, treatment average [5, 13]: 0.04
- HSP70 expression, delta CNS-PBS [5, 14]: −0.088
- HSP70 expression, treatment average [5, 14]: −0.159
- HSP70 expression, delta CNS-PBS [5, 15]: 0.2
- HSP70 expression, treatment average [5, 15]: 0.02
- HSP70 expression, delta CNS-PBS [5, 16]: 0.14
- HSP70 expression, treatment average [5, 16]: −0.06
- HSP70 expression, delta CNS-PBS [5, 17]: 0.17
- HSP70 expression, treatment average [5, 17]: −0.32
- Difference of mean fraction damaged to pooled PBS ([6]; KA at 24 hours): 0.005
- Mean fraction of hippocampus cells having KA-induced damage ([6]; KA at 24 hours): 0.193
- Difference of mean fraction damaged to pooled PBS ([6]; KA at 48 hours): −0.064
- Mean fraction of hippocampus cells having KA-induced damage ([6]; KA at 48 hours): 0.123
- Difference of mean fraction damaged to pooled PBS ([6]; KA at 72 hours): −0.092
- Mean fraction of hippocampus cells having KA-induced damage ([6]; KA at 72 hours): 0.096
- Difference of mean fraction damaged to pooled PBS ([6]; KA at 96 hours): −0.056
- Mean fraction of hippocampus cells having KA-induced damage ([6]; KA at 96 hours): 0.131
- Difference of mean fraction damaged to pooled PBS ([6]; KA at 168 hours): −0.026
- Mean fraction of hippocampus cells having KA-induced damage ([6]; KA at 168 hours): 0.162
- timepoint of maximal protection effect ([6]; single oral dose of 12 mg/kg): 72 h
- Mean of Hippocampus CA3 neurons damaged (Arbitrary units) [7]: 19.8182 Arbitrary units
- HSP70 induction (in words) ([8]; KA stereotactically injected in hippocampus, localized in the injection site): a strong induction of HSP70 was seen very clearly
- HSP70 expression compared with vehicle dosing control ([8]; western blot of hippocampus lysates, absence of the KA injection): 120% and 130%
- ABSOLUTE BASOPHIL [9]: 0 per mm^3
- BASOPHIL (%) [9]: 0.0%
- CALCIUM [9]: 7.7 mg/dL
- CREATININE [9]: <1 mg/dL
- DIRECT BILIRUBIN [9]: 0.0 mg/dL
- EOSINOPHIL (%) [9]: 1.5%
- HCT [9]: 46.0%
- INDIRECT BILIRUBIN [9]: 0.0 mg/dL
- LYMPHOCYTE (%) [9]: 84.0%
- MONOCYTE (%) [9]: 0.8%
- NRBC (per 100 WBC) [9]: 0.0 per 100 WBC
- PHOSPHORUS [9]: 5.7 mg/dL
- PLATELET COUNT (Thousands) [9]: 1128.6 Thousands
- RBC (Millions) [9]: 8.8 Millions
- TOTAL BILIRUBIN [9]: 0.0 mg/dL
- WBC (thousands) [9]: 4.7 thousands
- blood and neurology examinations (in words) [9]: no abnormalities in blood and neurology examinations
